Data: patent US20040127492A1 (Pharmacia Corporation, priority 2002, published 2004)
Like-named read-outs stand apart in the source and are kept apart here.

What was measured:
MK-3 = MK-3 (Homo sapiens, UniProt Q16644); experiment: MK-3 inhibition IC50 (similar method to MK-2, with appropriate modifications); assay type: biochemical; details: read-out: MK-3 Avg. IC50
Procedure: In practice, the selectivity of a cyclic pyrazole MK-2 inhibitor varies depending upon the condition under which the test is performed and on the inhibitors being tested. However, for the purposes of this specification, the selectivity of a cyclic pyrazole MK-2 inhibitor inhibitor can be measured as a ratio of the in vitro or in vivo IC50 value for inhibition of MK-3, divided by the IC50 value for inhibition of MK-2 (IC50 MK-3/IC50 MK-2). […] The MK-2 or MK-3 inhibiting activity of any of the compounds described herein can be determined by any one of several methods that are well known to those having skill in the art of enzyme activity testing. […] A similar method, with appropriate modifications, Can be used to measure MK-3 inhibitory activity. In addition, the efficacy of one of the present MK-2 inhibiting compounds in therapeutic applications can be determined by testing for inhibition of TNFα production in cell culture and in animal model assays.

MAPKAPK2 (MK-2) = MAPKAPK2 (MK-2) (Homo sapiens, UniProt P49137); experiment: Determination of MK-2 IC50 (HSP-peptide phosphorylation, anion exchange resin capture assay); assay type: biochemical
In short: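 MAPKAPK2, preactivated by p38α with 0.25 mM ATP for 1 h at 30° C, used at 15 nM to phosphorylate HSP-peptide with 0.03 mM ATP plus [γ33P]ATP, pH 7.5, 2% DMSO, 30 min at 30° C. Labelled peptide counted after anion-exchange resin capture; IC50 from six ten-fold dilutions, triplicate.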

[1] = Table 1, phenoxypyrazole MK-2 inhibitors
[2] = Table 1, phenoxypyrazole MK-2 inhibitors, read-out: MK-2 Avg, IC50
[3] = Table 2, pyrazolylpyrazole MK-2 inhibitors
[4] = Table 2, pyrazolylpyrazole MK-2 inhibitors, read-out: MK-2 Avg. IC50

MAPKAPK2 (MK-2), sequence (P49137 whole entry, species assumed): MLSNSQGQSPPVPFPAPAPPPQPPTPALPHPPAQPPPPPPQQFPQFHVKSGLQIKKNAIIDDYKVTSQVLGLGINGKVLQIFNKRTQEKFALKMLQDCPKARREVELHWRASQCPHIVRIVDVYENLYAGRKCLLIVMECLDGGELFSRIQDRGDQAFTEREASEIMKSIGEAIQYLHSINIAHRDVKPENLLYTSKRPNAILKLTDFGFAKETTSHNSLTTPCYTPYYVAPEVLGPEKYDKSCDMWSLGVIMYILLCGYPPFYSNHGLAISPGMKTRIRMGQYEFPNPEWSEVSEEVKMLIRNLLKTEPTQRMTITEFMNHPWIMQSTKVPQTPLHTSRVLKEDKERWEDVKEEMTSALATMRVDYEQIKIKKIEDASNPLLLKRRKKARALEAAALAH
MK-3, sequence (Q16644 whole entry, species assumed): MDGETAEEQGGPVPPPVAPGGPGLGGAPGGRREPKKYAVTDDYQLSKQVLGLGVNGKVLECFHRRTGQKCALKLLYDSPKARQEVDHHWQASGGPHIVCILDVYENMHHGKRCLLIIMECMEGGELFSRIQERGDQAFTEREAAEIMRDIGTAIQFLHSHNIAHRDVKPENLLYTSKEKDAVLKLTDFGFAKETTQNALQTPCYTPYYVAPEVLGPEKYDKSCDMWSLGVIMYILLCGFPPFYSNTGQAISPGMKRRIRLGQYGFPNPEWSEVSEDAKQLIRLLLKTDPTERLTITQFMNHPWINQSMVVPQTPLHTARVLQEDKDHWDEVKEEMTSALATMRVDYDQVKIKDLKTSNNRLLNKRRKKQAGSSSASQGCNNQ

SMILES | IC50 (MK-3) [µM] | IC50 (MAPKAPK2 (MK-2); read-out: MK-2 Avg. IC50) [µM] | IC50 (MK-3; [3]) [µM] | IC50 (MAPKAPK2 (MK-2); [4]) [µM] | other results
O=C(O)c1c2c(nn1CCCNCCc1ccc(-c3ccccc3)cc1)-c1ccncc1CC2 [Example 44] | 5.01 | 0.316 |  |  | 
Nc1cc2c(cc1O)CCc1c-2nn2c1C(=O)NCCC2 [Example 45] |  |  |  |  | IC50 (MK-3; [1]): > 200 µM; IC50 (MAPKAPK2 (MK-2); [2]): 88.7 µM
O=C(O)c1[nH]nc2c1CCc1[nH]ncc1-2 [Example 45] |  |  | ≥ 200 | 188 | 
CCOCn1ncc2c1CCc1c-2n[nH]c1C(N)=O [Example 46] |  |  | 145 | ≥ 200 | 
COc1cc2c(cc1-c1ccc(F)c(F)c1)-c1nn(CCCNC(=O)OC(C)(C)C)c(C(=O)O)c1CC2 [Example 46] |  |  |  |  | IC50 (MK-3; [1]): > 200 µM; IC50 (MAPKAPK2 (MK-2); [2]): 92.7 µM
O=C(O)c1c2c(nn1CCCNCCc1ccc(Br)cc1)-c1ccncc1CC2 [Example 46] | 10.7 | 0.325 |  |  | 
CCOC(=O)c1[nH]nc2c1CCc1c-2cnn1-c1ccccc1 [Example 47] |  |  | ≥ 200 | ≥ 200 | 
O=C(O)c1c2c(nn1CCCNCCc1ccc(Cl)cc1Cl)-c1ccncc1CC2 [Example 47] | 6.59 | 0.347 |  |  | 
CC1Cc2c(n[nH]c2C(=O)O)-c2ccc(O)cc21 (centres unmarked) [Example 48] |  |  |  |  | IC50 (MK-3; [1]): > 200 µM; IC50 (MAPKAPK2 (MK-2); [2]): 97.1 µM
CNC(=O)c1nn(-c2ccc(S(N)(=O)=O)cc2)c2c1CCc1c-2cnn1Cc1ccccc1 [Example 48] |  |  | ≥ 200 | ≥ 200 | 
O=C(O)c1c2c(nn1CCCNS(=O)(=O)Cc1ccccc1)-c1cc(-c3cnc4ccccc4c3)ncc1CC2 [Example 48] | 4.51 | 0.374 |  |  | 
COc1cc2c(cc1-c1ccc(Cl)cc1)-c1nn(CCCNC(=O)OC(C)(C)C)c(C(=O)O)c1CC2 [Example 49] |  |  |  |  | IC50 (MK-3; [1]): 161 µM; IC50 (MAPKAPK2 (MK-2); [2]): 98.1 µM
Cn1ncc2c1CCc1c-2n[nH]c1C(N)=O [Example 49] |  |  | ≥ 200 | ≥ 200 | 
NCC1Cn2nc3c(c2C(=O)N1)CCc1cnccc1-3 (centres unmarked) [Example 49] | 45.8 | 0.427 |  |  | 
CCOC(=O)c1[nH]nc2c1CCc1c-2cnn1C [Example 50] |  |  | ≥ 200 | ≥ 200 | 
NC(=O)c1[nH]nc2c1CCc1c-2cnn1-c1ccccc1 [Example 51] |  |  | ≥ 200 | ≥ 200 | 
NCCCn1nc2c(c1C(N)=O)CCc1cnc(-c3cnc4ccccc4c3)cc1-2 [Example 51] | 9.21 | 0.473 |  |  | 
CNC(=O)c1nn(-c2ccc(S(N)(=O)=O)cc2)c2c1CCc1[nH]ncc1-2 [Example 52] |  |  | ≥ 200 | ≥ 200 | 
COc1cc2c(cc1-c1ccccc1Cl)-c1nn(CCCNC(=O)OC(C)(C)C)c(C(=O)O)c1CC2 [Example 52] |  |  |  |  | IC50 (MK-3; [1]): > 200 µM; IC50 (MAPKAPK2 (MK-2); [2]): 109 µM
CCOC(=O)c1[nH]nc2c1CCc1c-2ccc(O)c1Br [Example 53] |  |  |  |  | IC50 (MK-3; [1]): > 200 µM; IC50 (MAPKAPK2 (MK-2); [2]): 116 µM
CCOC(=O)c1nn(-c2ccccc2)c2c1CCc1[nH]ncc1-2 [Example 54] |  |  | ≥ 200 |  | IC50 (MAPKAPK2 (MK-2); MK-2 Avg. IC50 (uM), Table 2, pyrazolylpyrazole MK-2 inhibitors): ≥ 200 µM
Cc1noc(C)c1-c1cc2c(cc1O)CCc1c-2nn(CCCN)c1C(=O)O [Example 55] |  |  |  |  | IC50 (MK-3; [1]): 169 µM; IC50 (MAPKAPK2 (MK-2); [2]): 136 µM
C=CCC1Cc2c(C(N)=O)n[nH]c2-c2ccc(O)cc21 (centres unmarked) [Example 56] |  |  |  |  | IC50 (MK-3; [1]): > 200 µM; IC50 (MAPKAPK2 (MK-2); [2]): 139 µM
COc1cc2c(cc1-c1cccc(S(C)(=O)=O)c1)-c1nn(CCCNC(=O)OC(C)(C)C)c(C(=O)O)c1CC2 [Example 57] |  |  |  |  | IC50 (MK-3; [1]): > 200 µM; IC50 (MAPKAPK2 (MK-2); [2]): 143 µM

Continued, in another order:

IC50 (MK-3) [µM] | IC50 (MAPKAPK2 (MK-2); read-out: MK-2 Avg. IC50) [µM] | IC50 (MK-3; [3]) [µM] | IC50 (MAPKAPK2 (MK-2); [4]) [µM] | SMILES | other results
34.3 | 0.479 |  |  | O=C(O)c1c2c(nn1CCCNCCCc1ccc(Cl)cc1)-c1ccncc1CC2 [Example 52] | 
4.92 | 0.483 |  |  | CN(C)c1cccc(-c2cc3c(cn2)CCc2c-3nn3c2C(=O)NCCC3)c1 [Example 53] | 
 |  | ≥ 200 | ≥ 200 | NC(=O)c1nn(-c2ccccc2)c2c1CCc1c-2cnn1Cc1ccccc1 [Example 53] | 
 |  | ≥ 200 | ≥ 200 | CCOC(=O)c1nn(-c2ccccc2)c2c1CCc1c-2cnn1Cc1ccccc1 [Example 55] | 
11.2 | 0.522 |  |  | O=C(O)c1c2c(nn1CCCNCCc1ccc(-c3cccnc3)cc1)-c1ccncc1CC2 [Example 55] | 
7.86 | 0.551 |  |  | O=C(O)c1c2c(nn1CCCNCCc1ccc(Cl)cc1)-c1ccncc1CC2 [Example 56] | 
8.85 | 0.559 |  |  | O=C(O)c1c2c(nn1CCCNCCc1ccc(Cl)s1)-c1ccncc1CC2 [Example 57] | 
